Structures can show the parent of a compound that is named as a salt.

In assay [1] the target is T1, fusion protein containing GAL4-DNA-binding domain and ERR full-length (Homo sapiens, UniProt P11474).
T1 construct: expressed in transfected cells; host or cells: 293T cells
T1 sequence (P11474 1-423): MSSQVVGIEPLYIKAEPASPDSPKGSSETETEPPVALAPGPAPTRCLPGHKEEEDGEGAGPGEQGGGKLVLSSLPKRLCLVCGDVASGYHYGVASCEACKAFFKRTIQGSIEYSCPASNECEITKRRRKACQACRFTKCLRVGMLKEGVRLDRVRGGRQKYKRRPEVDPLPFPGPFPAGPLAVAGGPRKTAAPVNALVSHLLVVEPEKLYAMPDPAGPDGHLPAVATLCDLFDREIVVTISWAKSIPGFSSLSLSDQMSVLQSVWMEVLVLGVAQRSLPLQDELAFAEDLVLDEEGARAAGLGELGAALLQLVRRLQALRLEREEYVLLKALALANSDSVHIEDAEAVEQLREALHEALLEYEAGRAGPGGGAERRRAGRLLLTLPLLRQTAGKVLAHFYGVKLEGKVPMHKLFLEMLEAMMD
As to the kind of experiment: Reporter assay system using 293T cells (GAL4-ERR luciferase, inverse agonist activity). In kind it is cell-based. Particulars: compound final concentration 3 μM, no compound = 0%, 10 μM XCT-790 = 100%; for inhibition at 3 µM: HEK-293T, read-out: inhibition rate (%) at 3 μM. On the procedure:
Experimental Example 2 Compound Evaluation in Reporter Assay System Using 293T Cells
293T cells derived from human kidney were seeded in a 150 cm^2 flask by 6,000,000 cells, and cultured in a medium (DMEM medium containing 10% inactivated Fetal Bovine Serum sterile filtered (FBS), […] Gentamicin, 10 mM HEPES buffer (pH 7.4)) at 37° C. in the presence of 5% CO2 for 1 day.
Then, vector DNA having a gene encoding a fusion protein, containing GAL4-DNA-binding domain and ERR full-length and a vector DNA wherein luciferase gene is fused at the downstream of GAL4-binding-sequence were cotransfected by a lipofection method, and the cells were cultured at 37° C. in the presence of 5% CO2 for 1 day. The cells were recovered, sown in a 384 well plate by 15,000 cells, and cultured at 37° C. in the presence of 5% CO2 for 3 hrs. Furthermore, 50 μM N-[5-(trifluoromethyl)-1,3,4-thiadiazol-2-yl]-2-cyano-3-[3-methoxy-4-[2,4-di(trifluoromethyl)benzyloxy]phenyl]propenamide (XCT-790) (final concentration 10 μM) or 15 μM compound (final concentration 3 μM) was added, and the cells were cultured at 37° C. in the presence of 5% CO2 for 1 day. The luciferase activity was measured by using multiplate reader Envision (Perkin Elmer Inc.). The inverse agonist activity of the compound was calculated in percentage with the luciferase activity inhibited by no addition of compound as 0%, and with addition of final concentration 10 μM of XCT-790 as 100%.
For orientation: Reporter assays use an easily measured gene product as a stand-in for the process of interest.

A further assay deals with MDA-MB-231-luc cells. Description: Antitumor test using MDA-MB-231-luc cells (subcutaneous transplant). In kind it is in vivo, Balb/c nu/nu mice. Particulars: change in tumor volume, vehicle group = 100%. As to the method: Experimental Example 3 Antitumor Test using MDA-MB-231-luc Cells
6-Week-old Balb/c nu/nu mice were transplanted subcutaneously with 5×10^6 cells/100 μL, and the mice were grouped according to the body weight and tumor volume after 1 to 2 weeks. Vehicle (0.5% MC) or a compound was administered orally to mice (6 mice per group). The administration was twice per day and performed continuously during the dosing period. Setting the change in tumor volume of the vehicle-treated group as 100%, the change rate in tumor volume of the compound-treated group (□/C %) was calculated.

For assay [2], the target named is T2, GST-ERR-α ligand-binding domain (Homo sapiens, UniProt P11474).
T2 sequence (P11474 193-421 limits assumed): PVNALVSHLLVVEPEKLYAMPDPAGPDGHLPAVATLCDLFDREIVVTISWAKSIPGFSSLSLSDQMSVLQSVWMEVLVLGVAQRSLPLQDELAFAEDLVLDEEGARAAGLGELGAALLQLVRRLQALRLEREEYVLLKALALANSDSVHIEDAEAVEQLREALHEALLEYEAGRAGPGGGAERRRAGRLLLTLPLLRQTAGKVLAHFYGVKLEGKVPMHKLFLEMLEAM
As to the kind of experiment: HTRF assay system using ERR-α ligand-binding domain (inverse agonist activity, biotinylated SRC-1 (676-700) peptide). The class given is biochemical. Particulars: compound final concentration 30 μM, 665/620 ratio, no compound = 0%, 10 μM XCT-790 = 100%; for inhibition at 30 µM: read-out: inhibition rate (%) at 30 μM. On the procedure: Experimental Example 1 Compound Evaluation in HTRF Assay System Using ERR-α Ligand-Binding Domain
An assay buffer (25 mM HEPES, 100 mM NaCl, 1 mM DTT, 0.1% BSA) containing 5 nM GST-ERR-α ligand-binding domain (final concentration 1.25 nM) was added to a 384 well plate, then 40 μM N-[5-(trifluoromethyl)-1,3,4-thiadiazol-2-yl]-2-cyano-3-[3-methoxy-4-[2,4-di(trifluoromethyl)benzyloxy]phenyl]propenamide (XCT-790) (final concentration 10 μM), or 120 μM compound (final concentration 30 μM) was added. Furthermore, an assay buffer containing XL665 conjugated Streptavidin, Eu^3+ criptate conjugated GST antibody and 200 nM biotinylated SRC-1 (676-700) (final concentration 100 nM) was added, and the mixture was reacted at room temperature for 2 hr. Using Multiplate reader Envision (Perkin Elmer Inc.), after excitation at 320 nm, fluorescence values at 620 nm and 665 nm were measured. The inverse agonist activity of the compound was calculated in percentage with the 665/620 ratio value inhibited by no addition of compound as 0%, and with addition of final concentration 10 μM of XCT-790 as 100%.
(In general: In TR-FRET formats the signal depends on donor and acceptor labels being close together.)

[3] abbreviates: 50 mg/kg orally twice per day, dosing period 14 days.

`C#CCNC1=NC(=O)S/C1=C\C1CCN(Cc2ccc(C(F)(F)F)cc2C(F)(F)F)CC1` [Example 7, (5Z)-5-({1-[2,4-bis(trifluoromethyl)benzyl]piperidin-4-yl}methylidene)-4-(prop-2-yn-1-ylamino)-1,3-thiazol-2(5H)-one]: in assay [1], the “inhibition rate (%) at 3 μM” value was 87%. Besides, the “T/C (%)” value with MDA-MB-231-luc cells (setting [3]) is recorded as 24%. Further, the “inhibition rate (%) at 30 μM” value in assay [2] was 100%.

For `C#CCNC1=NC(=O)S/C1=C\C1CCN(Cc2ccc(C(F)(F)F)cc2C(F)(F)F)CC1` [Example 10, (5Z)-5-({1-[2,4-bis(trifluoromethyl)benzyl]piperidin-4-yl}methylidene)-4-(prop-2-yn-1-ylamino)-1,3-thiazol-2(5H)-one fumarate], in assay [1] (fumarate), the “inhibition rate (%) at 3 μM” value was 93%. In the assay with MDA-MB-231-luc cells (60 mg/kg orally twice per day, dosing period 15 days), the “T/C (%)” value worked out at 15%. Further, the “inhibition rate (%) at 30 μM” value in assay [2] (fumarate) is recorded as 102%.

A word on the inhibition: it is the drop in the measured response relative to a control, in per cent. In the case of `O=C1N=C(NCCOCCO)/C(=C/C2CCN(Cc3ccc(C(F)(F)F)cc3C(F)(F)F)CC2)S1` [Example 13, (5Z)-5-({1-[2,4-bis(trifluoromethyl)benzyl]piperidin-4-yl}methylidene)-4-{[2-(2-hydroxyethoxy)ethyl]amino}-1,3-thiazol-2(5H)-one ditoluenesulfonate], the inhibition at 3 µM in assay [1] was 89%. In addition, the “T/C (%)” value with MDA-MB-231-luc cells (100 mg/kg orally twice per day, dosing period 15 days) is on record as 20%. Also, in assay [2], the inhibition at 30 µM was determined as 105%.

Take `CC(C)(O)CNC1=NC(=O)S/C1=C\C1CCN(Cc2ccc(C(F)(F)F)cc2C(F)(F)F)CC1` [Example 17, (5Z)-5-({1-[2,4-bis(trifluoromethyl)benzyl]piperidin-4-yl}methylidene)-4-[(2-hydroxy-2-methylpropyl)amino]-1,3-thiazol-2(5H)-one fumarate]: the inhibition at 3 µM in assay [1] amounted to 97%. Further, the “T/C (%)” value in the assay on MDA-MB-231-luc cells (50 mg/kg orally twice per day, dosing period 15 days) is listed as 40%. In addition, the inhibition at 30 µM in assay [2] was 106%.

In the case of `O=C1N=C(NCC2CC2)/C(=C/C2CCN(Cc3ccc(C(F)(F)F)cc3C(F)(F)F)CC2)S1` [Example 61, (5Z)-5-({1-[2,4-bis(trifluoromethyl)benzyl]piperidin-4-yl}methylidene)-4-[(cyclopropylmethyl)amino]-1,3-thiazol-2(5H)-one fumarate], in assay [1], the inhibition at 3 µM is 90%. In assay [2], the inhibition at 30 µM worked out at 95%.

For `C#CCNC1=NC(=O)S/C1=C\C1CCN(Cc2ccc(C(F)(F)F)cc2C(F)(F)F)C1` (centres unmarked) [Example 69, (5Z)-5-({1-[2,4-bis(trifluoromethyl)benzyl]pyrrolidin-3-yl}methylidene)-4-(prop-2-yn-1-ylamino)-1,3-thiazol-2(5H)-one maleate], the inhibition at 3 µM in assay [1] is 87%. In assay [2], the inhibition at 30 µM was determined as 67%.

`CC(C)(CO)CNC1=NC(=O)S/C1=C\C1CCN(Cc2ccc(C(F)(F)F)cc2C(F)(F)F)CC1` [Example 77, (5Z)-5-({1-[2,4-bis(trifluoromethyl)benzyl]piperidin-4-yl}methylidene)-4-[(3-hydroxy-2,2-dimethylpropyl)amino]-1,3-thiazol-2(5H)-one]: in assay [1], the inhibition at 3 µM turned out to be 82%. Also, the inhibition at 30 µM in assay [2] came to 109%.

Regarding `CC(C)(CO)CNC1=NC(=O)S/C1=C\C1CCN(Cc2ccc(C(F)(F)F)cc2C(F)(F)F)CC1` [Example 78, (5Z)-5-({1-[2,4-bis(trifluoromethyl)benzyl]piperidin-4-yl}methylidene)-4-[(3-hydroxy-2,2-dimethylpropyl)amino]-1,3-thiazol-2(5H)-one fumarate], in the assay on MDA-MB-231-luc cells (setting [3]), the “T/C (%)” value is reported as 11%.

`CNC1=NC(=O)N(C)/C1=C\C1CCN(Cc2ccc(C(F)(F)F)cc2C(F)(F)F)CC1` [Example 80, (5Z)-5-({1-[2,4-bis(trifluoromethyl)benzyl]piperidin-4-yl}methylidene)-1-methyl-4-(methylamino)-1,5-dihydro-2H-imidazol-2-one]: the inhibition at 3 µM in assay [1] was found to be 86%. Moreover, in assay [2], the inhibition at 30 µM is 105%.

Turning to `CN(C)C(=O)CNC1=NC(=O)S/C1=C\C1CCN(Cc2ccc(C(F)(F)F)cc2C(F)(F)F)CC1` [Example 108, N^2-[(5Z)-5-({1-[2,4-bis(trifluoromethyl)benzyl]piperidin-4-yl}methylidene)-2-oxo-2,5-dihydro-1,3-thiazol-4-yl]-N,N-dimethylglycinamide], the inhibition at 3 µM in assay [1] was 81%. In the assay with MDA-MB-231-luc cells (setting [3]), the “T/C (%)” value stood at 45%. Further, the inhibition at 30 µM in assay [2] was 89%.

Turning to `CN(C)C(=O)[C@H](CO)NC1=NC(=O)S/C1=C\C1CCN(Cc2ccc(C(F)(F)F)cc2C(F)(F)F)CC1` [Example 132, N^2-[(5Z)-5-({1-[2,4-bis(trifluoromethyl)benzyl]piperidin-4-yl}methylidene)-2-oxo-2,5-dihydro-1,3-thiazol-4-yl]-N,N-dimethyl-L-serinamide], the inhibition at 3 µM in assay [1] was found to be 78%. For the same molecule, the inhibition at 30 µM in assay [2] was 102%.

For the molecule `CN(C)C(=O)CCNC1=NC(=O)S/C1=C\C1CCN(Cc2ccc(C(F)(F)F)cc2C(F)(F)F)CC1` [Example 140, N^3-[(5Z)-5-({1-[2,4-bis(trifluoromethyl)benzyl]piperidin-4-yl}methylidene)-2-oxo-2,5-dihydro-1,3-thiazol-4-yl]-N,N-dimethyl-β-alaninamide], the inhibition at 3 µM in assay [1] is 90%. The inhibition at 30 µM in assay [2] worked out at 100%.

For `CCNC1=NC(=O)S/C1=C\C1CCN(Cc2ccc(C(F)(F)F)cc2C(F)(F)F)CC1` [Example 199, (5Z)-5-({1-[2,4-bis(trifluoromethyl)benzyl]piperidin-4-yl}methylidene)-4-(ethylamino)-1,3-thiazol-2(5H)-one], the inhibition at 3 µM in assay [1] came to 84%. For the same molecule, the inhibition at 30 µM in assay [2] worked out at 101%.

For `CCCNC1=NC(=O)S/C1=C\C1CCN(Cc2ccc(C(F)(F)F)cc2C(F)(F)F)CC1` [Example 200, (5Z)-5-({1-[2,4-bis(trifluoromethyl)benzyl]piperidin-4-yl}methylidene)-4-(propylamino)-1,3-thiazol-2(5H)-one], the inhibition at 3 µM in assay [1] turned out to be 88%. Besides, the inhibition at 30 µM in assay [2] came out at 101%.

(Values after patent US8772277B2, “Nitrogen-containing heterocyclic compound” (Takeda Pharmaceutical Company Limited, priority 2011, dated 2014).)
